Measurements reported in ChEMBL document CHEMBL1201862, “PubChem BioAssay data set” (2004).
The source made the active and inactive calls.

How the values were obtained:
Streptokinase A = biological target: T1, Streptokinase A (Streptococcus pyogenes serotype M1, UniProt P10520); assay: S. pyogenes streptokinase expression inhibitors, potency, dose response, plasminogen activation absorbance, OD405 (AID 1914); format: functional, Streptococcus pyogenes M1 GAS;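 further: secreted streptokinase activity via plasminogen activation per viability signal from cell pellet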
T1 sequence (P10520 whole entry): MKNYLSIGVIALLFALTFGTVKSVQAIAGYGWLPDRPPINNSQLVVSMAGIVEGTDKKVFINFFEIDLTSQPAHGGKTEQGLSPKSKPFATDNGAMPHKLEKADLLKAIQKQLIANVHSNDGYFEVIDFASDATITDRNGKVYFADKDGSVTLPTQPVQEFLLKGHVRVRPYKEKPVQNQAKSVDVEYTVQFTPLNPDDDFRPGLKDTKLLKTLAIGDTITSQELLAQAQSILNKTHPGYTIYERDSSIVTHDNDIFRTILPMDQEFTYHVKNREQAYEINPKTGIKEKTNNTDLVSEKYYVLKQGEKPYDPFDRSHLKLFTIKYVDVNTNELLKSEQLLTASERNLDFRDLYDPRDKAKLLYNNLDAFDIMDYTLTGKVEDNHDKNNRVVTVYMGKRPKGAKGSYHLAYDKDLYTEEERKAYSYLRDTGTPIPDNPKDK

NS3 = NS3 (Hepatitis C virus, UniProt A3EZJ3); assay: PubChem AID 2173; set-up: species or system Hepacivirus hominis
[1] = Luminescence Cell-Based Dose Retest to Confirm Inhibitors of Cancer Stem Cells. [Related pubchem assays (depositor defined):AID2717, AID2721]; format: functional; details: Homo sapiens
Streptococcus = assay: Group A Streptococcus viability loss, dose response, counter-screen for streptokinase expression inhibitor project, luminescence, BacTiterGlo (AID 1915); format: functional, organism-based;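 further: potency for reduction of bacterial viability or growth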
[2] = system: Streptococcus sp. 'group A'; assay: growth inhibition of control SK(-) GAS strain, dose response, counter-screen for streptokinase expression inhibitor project, luminescence, kanamycin, BacTiterGlo, confirmation (AID 1900); format: functional, organism-based
Estrogen receptor beta [3] = biological target: T2, Estrogen receptor beta (Homo sapiens, UniProt Q92731); assay: ERβ–SRC-3 coactivator interaction inhibitors, confirmation, orthogonal assay, biochemical, ELISA, streptavidin-HRP readout (AID 1060)
Estrogen receptor = biological target: T3, Estrogen receptor (Homo sapiens, UniProt P03372);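 further: potency for inhibiting coactivator peptide recruitment to the receptor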
T3 sequence (P03372 whole entry): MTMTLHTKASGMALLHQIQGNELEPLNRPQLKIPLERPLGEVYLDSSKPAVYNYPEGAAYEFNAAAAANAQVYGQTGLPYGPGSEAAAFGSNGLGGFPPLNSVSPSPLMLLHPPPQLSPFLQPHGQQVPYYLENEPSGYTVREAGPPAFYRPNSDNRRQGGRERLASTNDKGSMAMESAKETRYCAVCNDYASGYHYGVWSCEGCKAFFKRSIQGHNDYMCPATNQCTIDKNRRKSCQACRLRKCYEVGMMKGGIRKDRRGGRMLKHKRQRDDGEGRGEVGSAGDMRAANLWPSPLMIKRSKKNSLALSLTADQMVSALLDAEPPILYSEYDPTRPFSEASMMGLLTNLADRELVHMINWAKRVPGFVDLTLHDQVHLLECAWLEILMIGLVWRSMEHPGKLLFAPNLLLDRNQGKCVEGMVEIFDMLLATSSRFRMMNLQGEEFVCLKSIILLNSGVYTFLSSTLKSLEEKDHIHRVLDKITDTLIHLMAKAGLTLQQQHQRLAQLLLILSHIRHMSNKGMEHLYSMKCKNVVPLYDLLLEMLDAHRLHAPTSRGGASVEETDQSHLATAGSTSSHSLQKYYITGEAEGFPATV

Estrogen receptor beta [4] = biological target: T2, Estrogen receptor beta
Protein skinhead-1 = biological target: T4, Protein skinhead-1 (Caenorhabditis elegans, UniProt P34707); format: functional
T4 sequence (P34707 whole entry): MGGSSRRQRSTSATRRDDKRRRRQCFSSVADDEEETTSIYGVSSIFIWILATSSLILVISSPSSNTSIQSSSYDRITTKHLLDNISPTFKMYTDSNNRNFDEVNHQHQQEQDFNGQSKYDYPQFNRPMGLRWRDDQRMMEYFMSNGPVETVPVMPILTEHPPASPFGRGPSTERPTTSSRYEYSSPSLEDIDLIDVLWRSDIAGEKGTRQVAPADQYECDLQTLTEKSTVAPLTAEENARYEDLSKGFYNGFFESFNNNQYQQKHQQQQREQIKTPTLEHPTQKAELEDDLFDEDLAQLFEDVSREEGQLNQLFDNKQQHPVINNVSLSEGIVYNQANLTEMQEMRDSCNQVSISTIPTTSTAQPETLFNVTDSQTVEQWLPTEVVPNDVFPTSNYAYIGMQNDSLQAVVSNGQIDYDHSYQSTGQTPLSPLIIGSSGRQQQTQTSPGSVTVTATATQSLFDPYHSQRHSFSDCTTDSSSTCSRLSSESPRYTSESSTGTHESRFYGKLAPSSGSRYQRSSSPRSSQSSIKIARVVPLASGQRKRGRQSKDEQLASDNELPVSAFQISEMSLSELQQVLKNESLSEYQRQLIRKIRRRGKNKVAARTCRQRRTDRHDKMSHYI

Bcl-2-like protein 10 = Bcl-2-like protein 10 (Homo sapiens, UniProt Q9HD36); assay: Biochemical TR3 FP assay of Bcl-B inhibitor potency, EC50 (AID 1243); format: functional
[5] = biological target: Peroxisome proliferator-activated receptor gamma/Nuclear receptor coactivator 3 (Homo sapiens, UniProt P37231); format: functional;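 further: agonist potency for raising coactivator recruitment to the receptor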
[6] = biological target: Peroxisome proliferator-activated receptor gamma/Nuclear receptor coactivator 1 (Homo sapiens, UniProt P37231); format: functional;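 further: agonist potency as compounds enhance coactivator SRC-1 recruitment to PPARgamma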
[7] = biological target: T5, Endoribonuclease toxin MazF (Escherichia coli K-12, UniProt P0AE70); assay: MazF toxin RNase activators, dose response, biochemical, fluorescence, single-stranded RNA substrate, uHTS hits (AID 588481); format: functional
T5 sequence (P0AE70 whole entry): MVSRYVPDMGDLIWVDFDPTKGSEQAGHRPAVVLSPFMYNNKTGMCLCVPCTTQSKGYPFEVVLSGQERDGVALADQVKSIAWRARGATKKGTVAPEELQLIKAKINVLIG

[8] = biological target: Peroxisome proliferator-activated receptor gamma/Nuclear receptor coactivator 2 (Homo sapiens, UniProt P37231); format: functional;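 further: agonist potency for raising coactivator recruitment to the receptor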
[9] = biological target: T5, Endoribonuclease toxin MazF; assay: fluorescent RNA oligo signal without MazF, dose response, counter-screen for MazEF activator project, biochemical, fluorescence, single-stranded RNase substrate (AID 588502); format: functional
[10] = insulin promoter down-regulators in MIN6 cells, imaging, high-content screening, mouse beta cells (AID 1628); format: functional
Galanin receptor type 2 = Galanin receptor type 2 (Homo sapiens, UniProt O43603); assay: Dose Response cell-based high-throughput screening assay to identify antagonists of galanin receptor 2 (GALR2). [Related pubchem assays: 828, 866 ]; format: functional
[11] = Luminescence Cell-Based Dose Response HTS to Identify Inhibitors of 5'UTR Stem-Loop Driven Prion Protein mRNA Translation in H4 Neuroglioblastoma Cells. [Related pubchem assays: 1827 (Project Summary), 1813 (Primary HTS)]; format: functional
[12] = biological target: Photoreceptor-specific nuclear receptor (Homo sapiens, UniProt Q9Y5X4); format: functional, cell-based;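 further: CHO-S cells with Gal4-NCOR and VP16-NR2E3 two-hybrid luciferase reporter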
[13] = inhibitors of firefly luciferase expression or activity, dose response, H4 neuroglioma cells, luminescence (AID 1990); format: functional, cell-based
[14] = cytotoxicity in MIN6 insulinoma cells, dose response, cytotoxicity control, cell-based, mouse insulinoma (AID 2122); format: functional;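 further: confirmatory high-throughput counterscreen run to flag cytotoxic compounds; mouse MIN-6 beta cells carrying an insulin promoter eGFP reporter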
[15] = inhibitors of SNCA 5'UTR-driven reporter translation, confirmation, H4 neuroglioma cells, luminescence (AID 1988); format: functional, cell-based
HT-1080 = assay: cytotoxicity in HT1080 fibrosarcoma cells, cell-based, fluorescence readout (AID 620); format: functional; details: Homo sapiens
[16] = biological target: T6, Neuropeptide Y receptor type 2 (Homo sapiens, UniProt P49146); assay: NPY-Y2 antagonist potency, selectivity check, dose response, counter-screen for NPY-Y1 antagonist project, cell-based (AID 1278); format: functional
T6 sequence (P49146 whole entry): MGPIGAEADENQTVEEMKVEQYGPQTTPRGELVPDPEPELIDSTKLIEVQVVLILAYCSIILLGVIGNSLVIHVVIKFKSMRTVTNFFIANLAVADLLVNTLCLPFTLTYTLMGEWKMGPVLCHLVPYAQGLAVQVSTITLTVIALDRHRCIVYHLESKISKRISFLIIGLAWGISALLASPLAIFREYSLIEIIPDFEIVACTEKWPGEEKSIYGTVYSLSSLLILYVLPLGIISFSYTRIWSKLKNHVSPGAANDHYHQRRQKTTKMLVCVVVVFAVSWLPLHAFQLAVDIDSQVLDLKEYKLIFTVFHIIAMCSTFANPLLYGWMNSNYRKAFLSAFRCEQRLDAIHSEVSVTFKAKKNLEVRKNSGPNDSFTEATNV

[17] = biological target: Luciferin 4-monooxygenase (Photinus pyralis, UniProt P08659); assay: Counter Screen for Luciferase-based Assay Positives. [Related pubchem assays: 620, 618, 411 ]
[18] = biological target: T7, Neuropeptide Y receptor type 1 (Homo sapiens, UniProt P25929); assay: NPY-Y1 receptor antagonist potency, dose response, cell-based (AID 1277); format: functional
T7 sequence (P25929 whole entry): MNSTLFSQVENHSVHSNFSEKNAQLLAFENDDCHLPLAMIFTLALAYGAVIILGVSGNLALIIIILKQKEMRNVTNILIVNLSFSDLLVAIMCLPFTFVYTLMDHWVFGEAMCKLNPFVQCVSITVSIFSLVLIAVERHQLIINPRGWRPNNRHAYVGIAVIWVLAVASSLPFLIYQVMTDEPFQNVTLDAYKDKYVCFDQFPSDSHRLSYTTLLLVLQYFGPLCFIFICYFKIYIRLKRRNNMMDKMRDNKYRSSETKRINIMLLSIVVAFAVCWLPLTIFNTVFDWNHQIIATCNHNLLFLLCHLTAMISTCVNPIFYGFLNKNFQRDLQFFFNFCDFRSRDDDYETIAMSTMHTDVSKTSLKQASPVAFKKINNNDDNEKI

[19] = A Cell Based Secondary Assay To Explore Cytotoxicity of Compounds that Sensitize Mycobacterium Tuberculosis to Beta-Lactam Antibiotics.; format: functional
[20] = biological target: T8, Mannose-6-phosphate isomerase (Homo sapiens, UniProt P34949); assay: inhibitors of human PMI, primary screen, biochemical, fluorescence intensity, coupled assay (AID 1209)
T8 sequence (P34949 whole entry): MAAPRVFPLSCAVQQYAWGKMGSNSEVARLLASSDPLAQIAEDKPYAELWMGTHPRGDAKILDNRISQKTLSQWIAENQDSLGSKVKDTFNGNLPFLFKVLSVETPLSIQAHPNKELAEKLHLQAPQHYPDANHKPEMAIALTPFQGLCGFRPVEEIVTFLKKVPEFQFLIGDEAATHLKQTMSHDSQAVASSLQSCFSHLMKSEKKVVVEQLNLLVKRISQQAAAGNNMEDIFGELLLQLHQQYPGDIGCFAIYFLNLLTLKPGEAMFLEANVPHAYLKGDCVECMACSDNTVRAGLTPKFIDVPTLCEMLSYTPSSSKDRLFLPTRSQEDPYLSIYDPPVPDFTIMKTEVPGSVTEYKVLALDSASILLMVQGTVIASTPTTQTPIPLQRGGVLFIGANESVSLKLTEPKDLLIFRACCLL

NADPH oxidase 1 = NADPH oxidase 1 (Homo sapiens, UniProt Q9Y5S8); format: functional, cell-based;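 further: Cell-based assay with luminescence read-out, IC50 derived from inhibitor dose-response curves; intracellular ROS from endogenous NOX1 in intact HT29 colon cancer cells; potency of inhibitors that lower the ROS luminescence signal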
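Wherever AC50 is given: cells exposed to compound for roughly 70 hours or longer before luminescence read.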

T2 sequence (Q92731 whole entry): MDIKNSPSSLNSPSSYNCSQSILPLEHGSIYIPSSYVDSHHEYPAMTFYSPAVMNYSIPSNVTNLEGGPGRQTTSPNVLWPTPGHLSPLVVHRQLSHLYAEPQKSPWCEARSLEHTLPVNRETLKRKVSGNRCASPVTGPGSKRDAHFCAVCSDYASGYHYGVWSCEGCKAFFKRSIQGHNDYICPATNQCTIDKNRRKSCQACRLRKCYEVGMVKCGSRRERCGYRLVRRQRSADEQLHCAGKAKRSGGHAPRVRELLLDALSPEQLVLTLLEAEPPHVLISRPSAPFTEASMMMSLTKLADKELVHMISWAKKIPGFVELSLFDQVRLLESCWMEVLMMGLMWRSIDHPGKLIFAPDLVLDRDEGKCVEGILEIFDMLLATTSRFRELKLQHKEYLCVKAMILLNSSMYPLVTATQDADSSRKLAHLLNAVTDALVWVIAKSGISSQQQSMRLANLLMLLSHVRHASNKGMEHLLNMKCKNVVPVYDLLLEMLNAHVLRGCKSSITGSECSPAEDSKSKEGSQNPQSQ
Luciferin 4-monooxygenase, sequence (P08659 whole entry): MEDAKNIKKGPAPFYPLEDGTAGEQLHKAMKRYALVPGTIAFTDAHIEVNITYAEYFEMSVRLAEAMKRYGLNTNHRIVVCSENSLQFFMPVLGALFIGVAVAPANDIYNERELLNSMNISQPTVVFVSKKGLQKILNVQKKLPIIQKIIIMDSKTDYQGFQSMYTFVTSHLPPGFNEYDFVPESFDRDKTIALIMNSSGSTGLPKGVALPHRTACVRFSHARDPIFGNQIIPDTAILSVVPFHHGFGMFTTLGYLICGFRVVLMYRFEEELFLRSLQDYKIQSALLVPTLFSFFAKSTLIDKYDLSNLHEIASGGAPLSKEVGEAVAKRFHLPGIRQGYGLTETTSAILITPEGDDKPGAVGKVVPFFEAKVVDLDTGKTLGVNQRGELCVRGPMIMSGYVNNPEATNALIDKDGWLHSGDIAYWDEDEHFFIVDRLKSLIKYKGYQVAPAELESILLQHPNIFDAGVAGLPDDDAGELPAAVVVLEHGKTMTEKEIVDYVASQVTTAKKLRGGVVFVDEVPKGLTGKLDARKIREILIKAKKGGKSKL
Peroxisome proliferator-activated receptor gamma/Nuclear receptor coactivator 2, sequence (P37231 whole entry): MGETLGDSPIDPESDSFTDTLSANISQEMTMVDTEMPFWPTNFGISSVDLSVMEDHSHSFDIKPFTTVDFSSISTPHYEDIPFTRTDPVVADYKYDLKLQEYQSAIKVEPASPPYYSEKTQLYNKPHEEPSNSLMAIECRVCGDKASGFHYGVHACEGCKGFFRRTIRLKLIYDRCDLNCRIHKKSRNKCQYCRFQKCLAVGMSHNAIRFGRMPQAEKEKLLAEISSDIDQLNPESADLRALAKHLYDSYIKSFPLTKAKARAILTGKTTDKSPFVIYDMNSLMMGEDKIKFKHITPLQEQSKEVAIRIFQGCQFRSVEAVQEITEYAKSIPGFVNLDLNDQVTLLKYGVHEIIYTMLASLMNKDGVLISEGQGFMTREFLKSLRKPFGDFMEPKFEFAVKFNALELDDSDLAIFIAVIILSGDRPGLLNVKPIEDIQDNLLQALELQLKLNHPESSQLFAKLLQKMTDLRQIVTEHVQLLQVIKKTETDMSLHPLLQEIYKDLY
Peroxisome proliferator-activated receptor gamma/Nuclear receptor coactivator 2, sequence (Q15596 whole entry, further chain): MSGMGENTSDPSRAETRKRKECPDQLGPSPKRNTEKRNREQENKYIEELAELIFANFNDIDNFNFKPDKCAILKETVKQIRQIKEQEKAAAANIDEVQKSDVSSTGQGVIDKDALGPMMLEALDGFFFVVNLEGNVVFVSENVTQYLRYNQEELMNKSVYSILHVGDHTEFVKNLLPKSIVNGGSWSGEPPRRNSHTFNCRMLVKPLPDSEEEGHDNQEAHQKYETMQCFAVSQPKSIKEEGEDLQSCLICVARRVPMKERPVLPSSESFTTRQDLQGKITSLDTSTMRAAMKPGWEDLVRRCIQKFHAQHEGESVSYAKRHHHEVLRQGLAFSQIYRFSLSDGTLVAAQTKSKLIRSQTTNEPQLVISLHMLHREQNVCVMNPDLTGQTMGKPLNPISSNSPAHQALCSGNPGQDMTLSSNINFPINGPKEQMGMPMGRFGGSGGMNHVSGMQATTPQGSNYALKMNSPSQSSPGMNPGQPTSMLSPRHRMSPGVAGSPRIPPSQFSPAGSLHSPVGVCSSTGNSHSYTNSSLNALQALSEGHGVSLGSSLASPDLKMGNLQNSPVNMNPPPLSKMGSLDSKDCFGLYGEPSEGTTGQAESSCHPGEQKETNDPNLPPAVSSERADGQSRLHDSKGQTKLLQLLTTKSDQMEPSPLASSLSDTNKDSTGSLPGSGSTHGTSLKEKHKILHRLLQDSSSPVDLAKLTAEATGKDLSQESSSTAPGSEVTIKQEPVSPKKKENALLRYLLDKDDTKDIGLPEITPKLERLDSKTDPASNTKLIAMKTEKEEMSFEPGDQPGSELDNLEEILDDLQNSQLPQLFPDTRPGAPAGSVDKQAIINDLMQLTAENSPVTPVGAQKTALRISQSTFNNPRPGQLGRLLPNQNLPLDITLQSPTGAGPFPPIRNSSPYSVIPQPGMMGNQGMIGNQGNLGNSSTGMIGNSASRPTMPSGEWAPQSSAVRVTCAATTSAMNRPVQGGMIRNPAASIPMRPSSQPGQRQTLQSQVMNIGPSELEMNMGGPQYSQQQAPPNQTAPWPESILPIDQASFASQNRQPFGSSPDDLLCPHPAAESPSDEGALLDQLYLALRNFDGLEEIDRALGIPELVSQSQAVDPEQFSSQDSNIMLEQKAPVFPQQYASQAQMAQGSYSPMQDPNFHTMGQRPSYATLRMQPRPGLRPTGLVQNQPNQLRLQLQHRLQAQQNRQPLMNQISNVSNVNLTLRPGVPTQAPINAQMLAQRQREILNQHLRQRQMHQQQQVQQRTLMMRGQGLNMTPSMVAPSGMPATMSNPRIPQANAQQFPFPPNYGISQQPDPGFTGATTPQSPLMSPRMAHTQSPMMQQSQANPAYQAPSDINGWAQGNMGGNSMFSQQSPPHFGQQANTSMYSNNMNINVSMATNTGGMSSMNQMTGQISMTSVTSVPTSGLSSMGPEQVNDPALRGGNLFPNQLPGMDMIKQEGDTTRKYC
Peroxisome proliferator-activated receptor gamma/Nuclear receptor coactivator 3, sequence (P37231 whole entry): as the sequence (P37231 whole entry) above
Peroxisome proliferator-activated receptor gamma/Nuclear receptor coactivator 3, sequence (Q9Y6Q9 whole entry, further chain): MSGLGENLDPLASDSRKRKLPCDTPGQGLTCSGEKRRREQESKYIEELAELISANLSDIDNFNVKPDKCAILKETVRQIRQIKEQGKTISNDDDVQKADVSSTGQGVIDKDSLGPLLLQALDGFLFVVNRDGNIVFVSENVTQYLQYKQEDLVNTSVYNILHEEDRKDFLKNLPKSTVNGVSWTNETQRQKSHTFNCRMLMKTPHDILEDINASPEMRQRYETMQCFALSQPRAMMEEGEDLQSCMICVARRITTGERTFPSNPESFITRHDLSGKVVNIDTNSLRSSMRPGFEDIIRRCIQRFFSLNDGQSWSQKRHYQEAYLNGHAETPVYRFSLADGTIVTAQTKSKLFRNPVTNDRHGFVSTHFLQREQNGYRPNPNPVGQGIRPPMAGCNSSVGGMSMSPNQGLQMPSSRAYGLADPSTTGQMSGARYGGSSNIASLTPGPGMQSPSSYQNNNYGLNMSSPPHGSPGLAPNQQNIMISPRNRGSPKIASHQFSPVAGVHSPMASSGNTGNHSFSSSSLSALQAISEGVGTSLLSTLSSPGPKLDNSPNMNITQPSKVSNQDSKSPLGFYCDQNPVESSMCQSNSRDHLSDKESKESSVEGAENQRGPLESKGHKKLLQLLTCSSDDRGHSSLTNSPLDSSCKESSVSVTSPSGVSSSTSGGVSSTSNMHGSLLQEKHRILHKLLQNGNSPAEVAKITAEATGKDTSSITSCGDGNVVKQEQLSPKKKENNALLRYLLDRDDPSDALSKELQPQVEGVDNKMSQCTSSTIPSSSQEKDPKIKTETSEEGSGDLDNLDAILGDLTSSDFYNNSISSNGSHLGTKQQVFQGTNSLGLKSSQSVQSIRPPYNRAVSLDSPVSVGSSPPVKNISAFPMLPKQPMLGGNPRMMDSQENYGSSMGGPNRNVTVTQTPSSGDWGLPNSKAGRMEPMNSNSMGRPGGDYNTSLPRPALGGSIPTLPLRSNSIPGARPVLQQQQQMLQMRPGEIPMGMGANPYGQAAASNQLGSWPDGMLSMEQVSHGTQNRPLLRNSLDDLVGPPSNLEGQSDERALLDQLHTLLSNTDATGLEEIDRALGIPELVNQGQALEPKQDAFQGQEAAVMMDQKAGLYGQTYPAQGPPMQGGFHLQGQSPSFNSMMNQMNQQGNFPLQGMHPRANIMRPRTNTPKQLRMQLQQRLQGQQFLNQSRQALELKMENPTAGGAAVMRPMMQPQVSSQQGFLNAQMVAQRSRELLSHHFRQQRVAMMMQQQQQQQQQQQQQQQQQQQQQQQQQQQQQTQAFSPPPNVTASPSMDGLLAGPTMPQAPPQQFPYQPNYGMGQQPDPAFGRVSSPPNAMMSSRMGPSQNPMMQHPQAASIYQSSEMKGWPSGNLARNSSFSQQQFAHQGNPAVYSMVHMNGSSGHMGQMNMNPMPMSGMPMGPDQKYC

For CCCCCCCCCc1nc2sc3c(c2c(=O)n1NC(=O)c1ccccc1[N+](=O)[O-])CC(C)(C)OC3, the EC50 (Streptokinase A) was 2.23 µM (active), the IC50 (NS3) was 11.2 µM (not active) and the AC50 [1] was 0.843 µM (active). The EC50 (Streptococcus) was 63.4 µM (active) and the EC50 [2] was 1.73 µM (active).

With Cc1ccc(-c2csc(NC(=O)c3ccno3)n2)cc1 the IC50 (Estrogen receptor beta [3]) was < 0.023 µM (not active), the IC50 (Estrogen receptor) was 7.19 µM (active) and the IC50 (Estrogen receptor beta [4]) was 3.87 µM (active). The IC50 (Protein skinhead-1) was > 100 µM (inactive).

For Oc1ccc(Nc2nc(-c3ccccn3)cs2)cc1, the EC50 (Bcl-2-like protein 10) was 3.69 µM (active).

For Cn1c(/C(C#N)=C(\O)COc2ccc3ccccc3c2)nc2ccccc21, the EC50 [5] was > 79.4 µM (not active), the EC50 [6] was > 79.4 µM (not active) and the EC50 [7] was > 99 µM (inactive). For the same compound, the EC50 [8] was > 79.4 µM (not active), the AC50 [1] was < 0.16 µM (active) and the EC50 [9] was > 99 µM (inactive).

In the case of Cc1cc(C(=O)CSc2nc3ccccc3[nH]2)c(C)n1CC1CCCO1 (stereo not given), the IC50 [10] is reported as 1.2 µM (active), the IC50 (Galanin receptor type 2) is reported as > 42 µM (not active) and the EC50 [11] is reported as 8.51 µM (active). The IC50 [12] was 11.7 µM (inactive), the EC50 [13] was 7.29 µM (inconclusive) and the IC50 [14] was 0.874 µM (active). The EC50 [15] was 4.95 µM (active), the EC50 (HT-1080) was > 50 µM (not active) and the IC50 [16] was > 35 µM (not active). The EC50 [17] was > 100 µM (not active) and the IC50 [18] was > 35 µM (not active).

In the case of O=C(Nc1ccc([N+](=O)[O-])cc1)c1cc2ccccc2nc1Cl, the CC50 [19] is reported as > 40 µM (active).

In the case of COc1ccc(NC(=O)C2CC(=O)n3cnnc3S2)cc1 (stereo not given), the IC50 [20] is reported as > 50 µM (not active).

For O=C(Nc1ccc(OCc2ccccc2)cc1)Nc1ccc(N2CCCCC2)cc1, the IC50 (NADPH oxidase 1) was > 17 µM (not active).
